In article PMC11721617, “Novel isobavachalcone derivatives induce apoptosis and necroptosis in human non-small cell lung cancer H1975 cells” (Journal of Enzyme Inhibition and Medicinal Chemistry, 2023) one finds IC50 data, which are given here for 18 compounds.

The subject of one data set is H1975. The data set can be described thus: MTT assay, cytotoxic activity / cell viability. It counts as cell-based, human. The note with it: Homo sapiens, NCI-H1975. The protocol: (§1) Four cell lines (H1975, A549, PC9, and Aml-12) were cultured in RPMI 1640 medium containing 10% foetal bovine serum (FBS) and 1% penicillin/streptomycin in an atmosphere with 5% CO2 and 95% relative humidity at 37 °C.
(§2) Cell viability was examined using the MTT assay. The cells grown in the logarithmic phase were seeded in 96-well plates at a density of 5 × 10^3 per well. The cells were treated with various concentrations (0, 5, 10, 20, 40, and 80 μM) of the compound at different times, respectively. At the end of time point, MTT solution (5 mg/ml) was added to each well and incubated at 37 °C for 4 h. Next, the media was removed, and formazan was dissolved in DMSO. Finally, absorbance was measured with a microplate spectrophotometer at 490 nm (Synergy HT, BioTek, VT, USA).

Another data set relates to PC9. Description: MTT assay, cytotoxic activity. In kind it is cell-based. Particulars: Homo sapiens, PC-9, PC9 cells, 72 h. The protocol: as §1, §2
The next data set concerns A549. The data set can be described thus: MTT assay, cytotoxic activity. It counts as cell-based, human. The note with it: Homo sapiens; A549 cells, 72 h, MTT. The protocol: as §1, §2
Data set [1] in a line: MTT assay, cytotoxic activity on normal hepatocytes. It counts as cell-based, mouse. Particulars: Aml-12 cells (normal hepatocytes); normal mouse hepatocytes Aml-12 cells, 72 h. The protocol:
as §1, §2

[2] abbreviates: H1975 cells, 72 h, MTT, read-out: Cytotoxic activity IC50, H1975.

Read-outs that look alike come from different tables or passages of the source.

For `CC(C)=CCc1c(O)ccc(C(=O)/C=C/c2ccc(OCc3ccccc3)cc2)c1O` [Compound 5, (E)-3-(4-(Benzyloxy)phenyl)-1-(2,4-dihydroxy-3-(3-methylbut-2-en-1-yl)phenyl)prop-2-en-1-one], the IC50 stood at 13.6 µM with H1975 (setting [2]), 24.9 µM in the data set on PC9 and 33.1 µM in the data set on A549.

For `CC(C)=CCc1c(O)c(C(=O)/C=C/c2ccc(O)cc2)cc(C(c2ccc(Br)cc2)N2CCOCC2)c1O` (stereo not drawn) [Compound 10, (E)-1-(5-((4-Bromophenyl)(morpholino)methyl)-2,4-dihydroxy-3-(3-methylbut-2-en-1-yl)phenyl)-3-(4-hydroxyphenyl)prop-2-en-1-one], the results for the IC50 with H1975 (setting [2]), in the data set with PC9 and with A549 were 6.76 µM, 18.6 µM and 34.8 µM, respectively.

As to `CC(C)=CCc1c(O)c(C(=O)/C=C/c2ccc(O)cc2)cc(C(c2ccc([N+](=O)[O-])cc2)N2CCOCC2)c1O` (stereo not drawn) [Compound 13, (E)-1-(2,4-Dihydroxy-3-(3-methylbut-2-en-1-yl)-5-(morpholino(4-nitrophenyl)methyl)phenyl)-3-(4-hydroxyphenyl)prop-2-en-1-one], the IC50 in the data set on H1975 (setting [2]) stood at 7.39 µM; in the data set with PC9, 23.5 µM; in the data set with A549, 44.5 µM.

For the compound `CC(C)=CCc1c(O)c(C=O)cc(C(=O)/C=C/c2ccc(O)cc2)c1O` [Compound 6, (E)-2,4-Dihydroxy-5-(3-(4-hydroxyphenyl)acryloyl)-3-(3-methylbut-2-en-1-yl)benzylaldehyde], the concentration for half-maximal inhibition (IC50) was 5.79 µM with H1975 (setting [2]), 18.4 µM in the data set with PC9 and 24.1 µM with A549.

In the case of `CC(C)=CCc1c(O)c(C(=O)/C=C/c2ccc(O)cc2)cc(C(c2ccc(F)cc2)N2CCOCC2)c1O` (stereo not drawn) [Compound 12, (E)-1-(5-((4-Fluorophenyl)(morpholino)methyl)-2,4-dihydroxy-3-(3-methylbut-2-en-1-yl)phenyl)-3-(4-hydroxyphenyl)prop-2-en-1-one], the IC50 came to 12.1 µM in the data set with H1975 (setting [2]), 20.7 µM with PC9 and 33 µM with A549.

Take `CC(C)=CCc1c(O)c(C(=O)/C=C/c2ccc(O)cc2)cc(C(c2ccc(C(F)(F)F)cc2)N2CCOCC2)c1O` (stereo not drawn) [Compound 17, (E)-1-(2,4-Dihydroxy-3-(3-methylbut-2-en-1-yl)-5-(morpholino(4-(trifluoromethyl)phenyl)methyl)phenyl)-3-(4-hydroxyphenyl)prop-2-en-1-one]: the IC50 in the data set on H1975 (setting [2]) turned out to be 7.01 µM; with PC9, 20.6 µM; in the data set on A549 it was 30.1 µM.

As for `CC(C)=CCc1c(OCc2ccccc2)ccc(C(=O)/C=C/c2ccc(OCc3ccccc3)cc2)c1O` [Compound 4, (E)-1-(4-(Benzyloxy)-2-hydroxy-3-(3-methylbut-2-en-1-yl)phenyl)-3-(4-(benzyl-oxy)phenyl)prop-2-en-1-one], the half-inhibitory concentration (IC50) in the data set with H1975 (setting [2]), in the data set with PC9 and in the data set with A549 was more than 50 µM each time.

`CC(C)=CCc1c(O)c(C(=O)/C=C/c2ccc(O)cc2)cc(C(c2ccncc2)N2CCOCC2)c1O` (stereo not drawn) [Compound 8, (E)-1-(2,4-Dihydroxy-3-(3-methylbut-2-en-1-yl)-5-(morpholino(pyridin-4-yl)methyl)phenyl)-3-(4-hydroxyphenyl)prop-2-en-1-one]: the IC50 was found to be 13.8 µM in the data set with H1975 (setting [2]), 29.9 µM with PC9 and 39.2 µM in the data set with A549.

For the compound `CC(C)=CCc1c(O)c(C(=O)/C=C/c2ccc(O)cc2)cc(C(c2ccc(C(=O)O)cc2)N2CCOCC2)c1O` (stereo not drawn) [Compound 14, (E)-4-((2,4-Dihydroxy-5-(3-(4-hydroxyphenyl)acryloyl)-3-(3-methylbut-2-en-1-yl)phenyl)(morpholino)methyl)benzoic acid], the values for the IC50 with H1975 (setting [2]), in the data set on PC9 and in the data set on A549 were 23.6 µM, more than 50 µM and more than 50 µM, respectively.

In the case of `COc1ccc(C(c2cc(C(=O)/C=C/c3ccc(O)cc3)c(O)c(CC=C(C)C)c2O)N2CCOCC2)cc1` (stereo not drawn) [Compound 15, (E)-1-(2,4-Dihydroxy-5-((4-methoxyphenyl)(morpholino)methyl)-3-(3-methylbut-2-en-1-yl)phenyl)-3-(4-hydroxyphenyl)prop-2-en-1-one], the half-maximal inhibitory concentration (IC50) in the data set on H1975 (setting [2]) was 11.7 µM; in the data set with PC9, 23.2 µM; in the data set on A549, 28.9 µM.

Consider `CC(C)=CCc1c(O)ccc(C(=O)/C=C/c2ccc(O)cc2)c1O` [IBC, isobavachalcone], for which the IC50 with H1975 (setting [2]) was 17.9 µM; with PC9 it was 9.22 µM; in the data set with A549 it was 21.7 µM. For the same compound, in data set [1], the 50% inhibitory concentration (IC50) at 72 h is 17.7 ± 1.2 µM.

For `COc1ccc(/C=C/C(=O)c2ccc(O)c(CC=C(C)C)c2O)cc1` [Compound 1, (E)-1-(2,4-Dihydroxy-3-(3-methylbut-2-en-1-yl)phenyl)-3-(4-methoxyphenyl)prop-2-en-1-one], the figures for the concentration for half-maximal inhibition (IC50) with H1975 (setting [2]), in the data set on PC9 and in the data set with A549 were 38 µM, 14.3 µM and 41.6 µM, respectively.

With `COc1ccc(C(=O)/C=C/c2ccc(O)cc2)c(O)c1CC=C(C)C` [Compound 2, (E)-1-(2-Hydroxy-4-methoxy-3-(3-methylbut-2-en-1-yl)phenyl)-3-(4-hydroxyphenyl) prop-2-en-1-one], the IC50 was 40.5 µM with H1975 (setting [2]), 35.3 µM with PC9 and more than 50 µM in the data set with A549.

In the case of `CC(=O)O[C@H]1C(=O)[C@@]2(C)[C@H]([C@H](OC(=O)c3ccccc3)[C@]3(O)C[C@H](OC(=O)[C@H](O)[C@@H](NC(=O)c4ccccc4)c4ccccc4)C(C)=C1C3(C)C)[C@]1(OC(C)=O)CO[C@@H]1C[C@@H]2O` [Paclitaxel, reference compound], the figures for the concentration for half-maximal inhibition (IC50) with H1975 (setting [2]), in the data set on PC9 and in the data set with A549 were 0.01 µM, 0.06 µM and 1.61 µM, respectively. Also, the IC50 at 72 h in data set [1] came to 2.51 ± 0.13 µM.

For `CC(C)=CCc1c(O)c(/C=N/NC(=N)N)cc(C(=O)/C=C/c2ccc(O)cc2)c1O` [Compound 7, 2-((E)-2,4-Dihydroxy-5-((E)-3-(4-hydroxyphenyl)acryloyl)-3-(3-methylbut-2-en-1-yl)benzylidene)hydrazine-1-carboximidamide], the half-maximal inhibitory concentration (IC50) in the data set on H1975 (setting [2]) is 7.33 µM; in the data set with H1975 (read-out: IC50 values against H1975 and A549 cell lines (range over both)) it was 4.35 to 15 µM; with PC9, 8.3 µM; with A549 it was 15 µM.

For `CC(C)=CCc1c(O)c(C(=O)/C=C/c2ccc(O)cc2)cc(C(c2ccccc2)N2CCOCC2)c1O` (stereo not drawn) [Compound 9, (E)-1-(2,4-Dihydroxy-3-(3-methylbut-2-en-1-yl)-5-(morpholino(phenyl)methyl)phenyl)-3-(4-hydroxyphenyl)prop-2-en-1-one], the 50% inhibitory concentration (IC50) is 12.1 µM in the data set on H1975 (setting [2]), 22.8 µM with PC9 and 26.9 µM in the data set with A549.

For `COc1ccc(/C=C/C(=O)c2ccc(OC)c(CC=C(C)C)c2O)cc1` [Compound 3, (E)-1-(2-Hydroxy-4-methoxy-3-(3-methylbut-2-en-1-yl)phenyl)-3-(4-methoxyphenyl) prop-2-en-1-one], the IC50 with H1975 (setting [2]), in the data set with PC9 and with A549 was more than 50 µM throughout.

As for `CC(C)=CCc1c(O)c(C(=O)/C=C/c2ccc(O)cc2)cc(C(c2ccc(Cl)cc2)N2CCOCC2)c1O` (stereo not drawn) [Compound 11, (E)-1-(5-((4-Chlorophenyl)(morpholino)methyl)-2,4-dihydroxy-3-(3-methylbut-2-en-1-yl)phenyl)-3-(4-hydroxyphenyl)prop-2-en-1-one], the IC50 with H1975 (setting [2]) is 11.4 µM; with PC9, 19.7 µM; in the data set with A549, 21.8 µM.
